Experiments:
[1] = tested on: Colletotrichum lagenarium; conditions: 150 grams per hectare; cucumber cultivar Bush Champion
[2] = tested on: Puccinia recondita (f sp. tritici); conditions: 150 grams per hectare; wheat cultivar Fielder; evaluated after 12 days
Sphaerotheca fulginea = conditions: 150 grams per hectare; cucumber cultivar Bush Champion; scored seven days after inoculation
[3] = tested on: Pseudoperonospora cubensis; conditions: 9 grams per hectare; detached cucumber leaf; five days

Row | SMILES | percent disease control, cucumber anthracnose [1] [%] | percent disease control, wheat leaf rust [2] [%] | percent disease control, cucumber powdery mildew (Sphaerotheca fulginea) [%] | percent disease control, cucumber downy mildew [3] [%]
1 | CNC(=O)C(=NOC)c1ccccc1CON=C(C)C1CC1(C)c1ccccc1 (stereo not drawn) [Compound 3.11, (E,E and Z,E)-N-Methyl 2-[2-((trans-1-(2-phenyl-2-methyl-cyclopropyl)ethylidene)aminooxymethyl)phenyl]-2-methoxyiminoacetamide] | 100 | 100 | 100 | 
2 | CNC(=O)/C(=N/OC)c1ccccc1CO/N=C(\C)C1CC1(C)c1ccc(Cl)cc1 (centres unmarked) [Compound 3.14A, (E,E)-N-Methyl 2-[2-((1-(2-(4′-chlorophenyl)-2-methylcyclopropyl)ethylidene)aminooxymethyl)phenyl]-2-methoxyiminoacetamide] | 100 | 100 | 100 | 
3 | CON=C(C(=O)OC)c1ccccc1CON=C(C)C1CC1c1c(Cl)cccc1Cl (stereo not drawn) [Compound 8.1, Methyl 2-[2-((trans-1-(2-(2′,6′-dichlorophenyl)cyclopropyl)ethylidene)aminooxymethyl)phenyl]-2-methoxyiminoacetate] |  |  | 100 | 
4 | CNC(=O)C(=NOC)c1ccccc1CON=C(C)C1CC1c1c(Cl)cccc1Cl (stereo not drawn) [Compound 9.1, N-Methyl 2-[2-((trans-1-(2-(2′,6′-dichlorophenyl)cyclopropyl)ethylidene)aminooxymethyl)phenyl]-2-methoxyiminoacetamide] | 100 | 100 | 100 | 
5 | CNC(=O)C(=NOC)c1ccccc1CON=C(C)C1CC1c1c(F)cccc1F (stereo not drawn) [Compound 9.7A, N-Methyl 2-[2-((trans-1-(2-(2′,6′-difluorophenyl)cyclopropyl)ethylidene)aminooxymethyl)phenyl]-2-methoxyiminoacetamide] | 100 | 100 | 100 | 100

— US6348627B1 (priority 1999, dated 2002)
